In patent publication US20160198747A1, “1H-PYRROLE-DICARBONYL-DERIVATIVES AND THEIR USE AS FLAVORING AGENTS” (IMAX DISCOVERY GMBH, priority 2013, published 2016):
Entries after “also recorded” stand apart in the source; their conditions may differ.

How the values were obtained:
[1] = as described in US 2009/0311401; cited from earlier work
[2] = system: group of 16 trained panelists; experiment: Sensory Test 2: trained panelists score a beef broth (bouillon) on eight descriptors; assay type: in vivo, human; conditions: scale 0 to 6, average of 16 panelists
Source text: A group of 16 trained panelists was instructed to evaluate the taste of a broth (bouillon) containing 0.5 wt. % of beef extract (Ref-beef) according to eight different descriptors in several repetitions. In a next step, these panelists were asked to rate said reference beef broth “Ref-beef” (presented at each testing session as a reference) against the following two different compositions consisting of “Ref-beef” and additionally a specific amount of the respective to be tested substance:
“Beef-I”=“Ref-beef”+10 ppm of the compound of Formula (I) of Synthesis Example 1,
“Beef-MSG”=“Ref-beef”+500 ppm (0.05 wt. %) of MSG
“Beef-MSG” was used as a positive umami standard.
The panelists judged the strength/intensity of the eight different descriptors in each case by awarding scores on a scale of from 0 (not corresponding to descriptor) to 6 (very strong). The results are present in the following table and FIGURE. All data are the averaged values for the group of 16 trained panelists for the respective scores for each descriptor.

[3] = system: expert panel (8 panelists); experiment: Sensory Test 1: expert panel, aqueous solution, sipping, holding 10 seconds, spitting out; assay type: in vivo, human
Experimental: An expert panel (8 panelists) evaluated the sensory properties of the compound of Formula (I) of Synthesis Example 1. The compound of Formula (I) of Synthesis Example 1 was first dissolved in ethanol and then added in the corresponding amount in water. The aqueous solution was evaluated by sipping, holding it in the mouth for 10 seconds, and then spitting it out. The description “accumulating” means that the flavor perception gradually (further) increases a few seconds after taking the solution into the mouth, often even some time after the solution has been spit out.

human sensory panel = human sensory panel (summary statement); assay type: in vivo
Source text: (§1) A particularly preferred compound of the invention is 4-ethyl 2-pyridin-2-ylmethyl-3,5-dimethyl-1H-pyrrole-2,4-dicarboxylate. […] It performs as a MSG replacer at the concentration of 4-20 ppm, depending on the application, whereas at the concentration of 0.5-10 ppm, depending on the application, it performs as a MSG enhancer. The compound is not mutagenic in a standard in vitro Ames plate incorporation test in bacterial strains of Salmonella typhimurium either in the absence or presence of metabolic activation.

[4] = Sensory Test 3: Sip and Spit evaluation in water, bouillons, meat products and snacks; assay type: in vivo, human
Experimental: An additional sensory analysis was performed for the compound of Formula (I) of Synthesis Example 1, by “Sip and Spit” for all evaluations and the key results are summarized in the following table.

solubility = assay type: physicochemical
[5] = stability to heat and to day-light; assay type: physicochemical
[6] = system: bacterial strains of Salmonella typhimurium; experiment: in vitro Ames plate incorporation test; assay type: cell-based
Source text: as §1

[7] = Beef-MSG = Ref-beef (broth, 0.5 wt. % beef extract) + 500 ppm (0.05 wt. %) MSG
[8] = Beef-I = Ref-beef (broth, 0.5 wt. % beef extract) + 10 ppm compound

## CCNC(=O)O[C@H]1C[C@H](C)CC[C@H]1C(C)C (racemic) [racemate of (1S,2S,5R)-2-isopropyl-5-methylcyclohexyl ethyl carbamate, (1S,2S,5R)-2-isopropyl-5-methylcyclohexyl ethyl carbamate]
[1]
  flavor profile: cooling, umami, menthol note

## N[C@@H](CCC(=O)O)C(=O)[O-].[Na+] [MSG, monosodium glutamate, reference compound]
[2]; [7]
  Long-lastingness score: 4.3
  Meaty score: 5.3
  Mouth-watering score: 4.4
  Mouthfeel score: 4.8
  Roasty score: 3.8
  Salty score: 2.5
  Sour score: 2.9
  Sweet score: 2.1

## CCOC(=O)c1c(C)[nH]c(C(=O)OCc2ccccn2)c1C [Synthesis Example 1, 3,5-dimethyl-1H-pyrrole-2,4-dicarboxylic acid, 4-ethyl 2-(2-pyridinylmethyl)ester]
[3]; 3 ppm + 0.05 wt. % MSG in water
  Description of sensory effects: Strong umami, meaty, mouthfeel,; also recorded: mouth-watering
[3]; 3 ppm in water
  Description of sensory effects: Strong umami, slightly metallic,; also recorded: some delay but lingering
[3]; 30 ppm + 0.05 wt. % MSG in water
  Description of sensory effects: Umami, meaty, accumulating
[3]; 30 ppm in water
  Description of sensory effects: Strong umami, long lasting
[2]; [8]
  Long-lastingness score: 5.4
  Meaty score: 5.5
  Mouth-watering score: 4.9
  Mouthfeel score: 5.5
  Roasty score: 3.9
  Salty score: 2.7
  Sour score: 2.9
  Sweet score: 1.5
Human sensory panel
  after-taste or off notes: No after-taste or off notes are perceived
Human sensory panel; 3 ppm
  taste perception: very pleasant savory taste perception
[4]; 0.5 ppm in chicken bouillon + 0.01% MSG
  MSG ENHANCEMENT Chicken Bouillon + 0.01% MSG vs. 0.04% MSG, sensory description: warm, meaty; also recorded: fatty, slightly salty, round,; also recorded: slight sweet, good impact,
[4]; 3 ppm in salted water
  Performance in Salted Water, sensory description: clean, sweet umami, good
[4]; 3 ppm in water
  Performance in Water, sensory description: clean, sweet umami, good
[4]; 4 ppm in chicken bouillon
  MSG REPLACEMENT Chicken Bouillon vs. 0.04% MSG, sensory description: good, round, nice, clean
[4]; 6 ppm in sour cream & onion chips + 0.05% MSG
  MSG ENHANCEMENT Sour Cream & Onion Chips + 0.05% MSG vs. 0.4% MSG, sensory description: umami, pleasant, good
[4]; 10 ppm in crackers + 0.03% MSG
  MSG ENHANCEMENT Crackers + 0.03% MSG vs. 0.1% MSG, sensory description: umami, salivating, good
[4]; 10 ppm in marinated chicken + 0.05% MSG
  MSG ENHANCEMENT Marinated Chicken + 0.05% MSG vs. 0.3% MSG, sensory description: bad, eggy, white meat,; also recorded: malty
[4]; 10 ppm in pork burger + 0.03% MSG
  MSG ENHANCEMENT Pork Burger + 0.03% MSG vs. 0.1% MSG, sensory description: umami, sweet
[4]; 20 ppm in cocido ham
  MSG REPLACEMENT Cocido Ham vs. 0.1% MSG, sensory description: stronger, ok, meaty, sweet, and good
[4]; 20 ppm in marinated chicken
  MSG REPLACEMENT Marinated Chicken vs. 0.3% MSG, sensory description: meaty, umami balanced,; also recorded: seems salty
[4]; 20 ppm in sour cream & onion chips
  MSG REPLACEMENT Sour Cream & Onion Chips vs. 0.4% MSG, sensory description: umami balanced, pleasant,; also recorded: lingering, less salty, good,; also recorded: full, salivating, sweet, more; also recorded: creamy
[4]; chicken bouillon + 0.01% MSG, vs. 0.04% MSG
  MSG ENHANCEMENT Chicken Bouillon + 0.01% MSG vs. 0.04% MSG, concentration: 0.5 ppm
[4]; chicken bouillon, vs. 0.04% MSG
  MSG REPLACEMENT Chicken Bouillon vs. 0.04% MSG, concentration: 4 ppm
[4]; cocido ham, vs. 0.1% MSG
  MSG REPLACEMENT Cocido Ham vs. 0.1% MSG, concentration: 20 ppm
[4]; crackers + 0.03% MSG, vs. 0.1% MSG
  MSG ENHANCEMENT Crackers + 0.03% MSG vs. 0.1% MSG, concentration: 10 ppm
[4]; depending on the application
  concentration at which it performs as a MSG enhancer: 0.5-10 ppm
  concentration at which it performs as a MSG replacer: 4-20 ppm
[4]; marinated chicken + 0.05% MSG, vs. 0.3% MSG
  MSG ENHANCEMENT Marinated Chicken + 0.05% MSG vs. 0.3% MSG, concentration: 10 ppm
[4]; marinated chicken, vs. 0.3% MSG
  MSG REPLACEMENT Marinated Chicken vs. 0.3% MSG, concentration: 20 ppm
[4]; pork burger + 0.03% MSG, vs. 0.1% MSG
  MSG ENHANCEMENT Pork Burger + 0.03% MSG vs. 0.1% MSG, concentration: 10 ppm
[4]; pork burger, vs. 0.1% MSG
  MSG REPLACEMENT Pork Burger vs. 0.1% MSG, concentration: 20 ppm
[4]; sour cream & onion chips + 0.05% MSG, vs. 0.4% MSG
  MSG ENHANCEMENT Sour Cream & Onion Chips + 0.05% MSG vs. 0.4% MSG, concentration: 6 ppm
[4]; sour cream & onion chips, vs. 0.4% MSG
  MSG REPLACEMENT Sour Cream & Onion Chips vs. 0.4% MSG, concentration: 20 ppm
solubility
  solubility: good solubility
[5]; day-light
  stability to day-light: stable
[5]; heat
  stability to heat: stable
[6]; absence of metabolic activation
  mutagenicity, Ames plate incorporation test: not mutagenic
[6]; presence of metabolic activation
  mutagenicity, Ames plate incorporation test: not mutagenic
